Measurements: US20030096394A1, “Laccase activity enhancers” (priority 2001, published 2003)

How the values were obtained:
laccase (NS51003) = assay: Chicago Blue (Direct Blue 1) dye bleaching assay for laccase mediators; assay type: biochemical, Aspergillus sp.; conditions: potential mediator 0.1 micromole/ml, decrease in absorbance at 610 nm
Procedure: The Chicago Blue Dye, also known as Direct Blue 1 or DB 1, was used to identify these compounds. The Chicago Blue Dye is fully described by Schneider et al. in U.S. Pat. No. 5,885,304, which is hereby incorporated by reference, and has the following formula. [drawing 10]
Each of the test compounds (i.e., potential mediators) was dissolved in water, or in ethanol if the potential mediator was not water soluble, and then mixed with a phosphate buffer and a Chicago Blue solution. […] The change in the absorbance at A610 nm was measured immediately using a UV-VIS spectrophotometer (UV-1201, Shimadzu Scientific Instruments) after the enzyme was added. The decrease in absorbance was recorded at 30-second intervals for 5 minutes and was used to estimate the efficiency of the mediator.
Experiments were conducted at pH levels of 5.5 and 7.0. The last column gives the decrease in absorbance at 610 nm. The larger the decrease in absorbance at 610 nm, the better is the ability to discolor the dye.

[1] = Appearance of potential mediator in water; assay type: physicochemical
[2] = tested on: laccase (NS51003, Novozymes A/S) and xylanase (Pulpzyme HC, Novozymes A/S); assay: Bleaching of Chicago Blue at pH 7.0 with laccase and xylanase combination; assay type: biochemical; conditions: mediator 20 μM
Procedure: In the following example, the enzyme enhancing agent N-benzylidenebenzylamine was used as a mediator for a laccase to enhance the bleaching of Chicago Blue at pH 7.0 in the presence of a laccase and a xylanase.
The activity of the xylanase (Pulpzyme HC, Novozymes A/S) is 1000 units per ml enzyme solution. One xylanase unit is defined as the amount of enzyme which, under standard conditions (pH 9.0, 50° C., 30 minutes of incubation), release one micromole of the dye from a dyed RBB xylan.
N-Benzylidenebenzylamine was dissolved in ethanol and then mixed with a phosphate buffer and a Chicago Blue solution. A solution of laccase (NS51003, Novozymes A/S) and xylanase (Pulpzyme HC, Novozymes A/S) was added to make 1 ml of the final solution, containing 20 uM of the mediator, 20 mM buffer at pH 7.0 and Chicago Blue solution, with absorbance at A610 nm between 0.6 to 0.8. After the enzyme was added, the change in the absorbance was measured immediately using a UV spectrophotometer (UV-1201, Shimadzu Scientific Instruments). The decrease in absorbance was recorded after 3 minutes and was used to estimate the results of bleaching.

Row | Structure (SMILES) | ΔmA610 (3 min) (laccase (NS51003); pH 5.5) | Appearance in water ([1]; Table 1 (pH 5.5 series)) | other results
1 | O=C(O)C=Cc1ccccc1 [Cinnamic acid] | 3 | clear | –
2 | COc1ccc(CO)cc1OC [Veratryl alcohol] | 3 | clear | –
3 | O=C(O)C=Cc1ccccc1Cl [2-Chlorocinnamic acid] | 9 | cloudy | –
4 | O=C(O)C=Cc1cccc(Cl)c1 [3-Chlorocinnamic acid] | 8 | cloudy | –
5 | COc1cc(C=CC(=O)O)ccc1O [4-Hydroxy-3-methoxycinnamic acid] | 441 | – | –
6 | COc1ccc(C=CC(=O)O)cc1O [3-Hydroxy-4-methoxycinnamic acid] | 94 | clear | –
7 | O=C(O)c1ccccc1O [Salicylic acid] | 11 | clear | –
8 | O=C1Nc2ccccc2C1=O [Isatin] | 6 | clear | –
9 | CCOC(=O)c1ccccc1O [Ethyl Salicylate] | 2 | cloudy | –
10 | Nc1ccc(C=CC(=O)O)cc1 [4-Aminocinnamic acid] | 43 | clear | –
11 | O=C(O)C=Cc1cccc(O)c1 [3-Hydroxycinnamic acid] | 7 | clear | –
12 | COc1ccc(C=CC(=O)O)cc1 [4-Methoxycinnamic acid] | 6 | cloudy | –
13 | Nc1nc(N)nc(N)n1 [Melamine] | 128 | cloudy | –
14 | O=C(O)C=Cc1ccccc1O [2-Hydroxycinnamic acid] | 5 | clear | –
15 | C(=NCc1ccccc1)c1ccccc1 [N-benzylidene benzylamine] | 28 | clear | ΔmA610 (3 min) (laccase (NS51003); pH 7.0): 2; mA610 (3 min) ([2]; laccase 0% v/v, xylanase 0.5% v/v): 112; mA610 (3 min) ([2]; laccase 0.5% v/v, xylanase 0% v/v): 11; mA610 (3 min) ([2]; laccase 0.5% v/v, xylanase 0.5% v/v): 163; Appearance in water ([1]; Table 2 (pH 7.0 series)): clear
16 | O=C(O)C=Cc1ccc([N+](=O)[O-])cc1 [4-Nitrocinnamic acid] | 0 | cloudy | –
17 | O=C(O)C=Cc1ccc(Cl)cc1 [4-Chlorocinnamic acid] | 13 | cloudy | –
18 | CN(C)c1ccc(C=CC(=O)O)cc1 [4-(Dimethylamino)cinnamic acid] | 519 | clear, yellow | –
19 | COc1cccc(C=CC(=O)O)c1 [3-Methoxycinnamic acid] | 4 | clear | –
20 | O=C(O)C=Cc1ccc(O)cc1 [4-Hydroxycinnamic acid] | 42 | clear | –
21 | COc1cc(C=CC(=O)O)cc(OC)c1OC [3,4,5-Trimethoxycinnamic acid] | 5 | cloudy | –
22 | Nc1ccccn1 [2-Aminopyridine] | 3 | light brown | ΔmA610 (3 min) (laccase (NS51003); pH 7.0): 2; Appearance in water ([1]; Table 2 (pH 7.0 series)): light brown
23 | COc1ccc(C=CC(=O)O)cc1OC [3,4-Dimethoxycinnamic acid] | 0 | clear | –
24 | COc1cc(C=CC(=O)O)cc(OC)c1O [3,5-Dimethoxy-4-hydroxycinnamic acid] | 491 | clear | –
